US7312024B2, “Materials and methods to inhibit Hodgkin and Reed Sternberg cell growth” (Amgen Canada Inc., priority 1999, dated 2007)

Tested on: HDLM2 cells
Test: [3H]-thymidine incorporation proliferation of HDLM2 cells after neutralization of IL-13
Format: cell-based, human
Conditions: IL-13 0.5-200 ng/ml
Protocol: To investigate the effects of IL-13 and IL-5 on the proliferation of H/RS cells, L428, KMH2 and HDLM2 cells were incubated with either (i) medium alone, (ii) medium containing neutralizing antibodies to IL-13 or IL-5, or (ii) isotype matched control antibodies. Proliferation was measured by determining [^3H]-thyridine incorporation at 24, 48, or 72 hours after treatment.
HD-derived L428, KMH2, and HDLM2 cells and LCL control cells (2×10^4/well) were cultured in 96-well flat-bottom plates for 24 hours, 48 hours, or 72 hours in the presence of anti-IL-13, anti-IL-5, or isotype control antibodies at 5, 10, 20, 30, 50, 100 or 150 μg/ml. Cells were treated either with IL-13 (0.5, 1, 5, 10, 50, 100 and 200 ng/ml), or with these same doses of IL-13 combined with 20 μg/ml anti-IL-13 monoclonal antibody. Tritium-labeled thymidine (1 μCi/well) was added to each well and incubation continued for eight hours. Cells were harvested on filters and incorporation of […] into cellular DNA was measured as previously described [Shahinian, et al., Science 261:609-12 (1993)]. The viability of cultured cell lines after treatment with anti-IL-13 neutralizing antibodies was examined by 7-aminoactinomycin D (7-AAD) staining.

## IL-13: exogenous IL-13 cytokine added to cells
  proliferation with exogenous IL-13 alone versus untreated cells: did not result in an increase in proliferation
